The results in this text go back to US4156011A, “Sulphur- and oxygen-containing diaryl compounds” (priority 1974, dated 1979).

SMILES strings stand for the structures. Structures can show the parent of a compound that is named as a salt. Where two headings read alike, the source gives them in different places.

Data set [1] can be described thus: Reduction of lipids and cholesterol in rats treated orally. The data set is classed as in vivo. To be noted: for inhibition in vivo at 50 mg/kg / inhibition in vivo at 10 mg/kg / inhibition in vivo at 20 mg/kg: Rattus norvegicus; for inhibition in vivo at 50 mg/kg: 96 h, oral 50 mg/kg; for inhibition in vivo at 10 mg/kg / inhibition in vivo at 20 mg/kg: 72 h, 3 days; for inhibition in vivo at 10 mg/kg: oral 10 mg/kg; for inhibition in vivo at 20 mg/kg: oral 20 mg/kg.

The next data set is described as follows: Clinical tests in man. Type of data set: in vivo. How it is done:
The clinical tests have made it possible to confirm the pharmacological tests. Thus, in man, CRL 40,293 (Example 23) in the form of gelatine-coated pills containing 400 mg of active ingredient administered at the rate of 2 such pills twice daily has given good results in the treatment of circulatory complaints and especially of lipid disturbances.
CRL 40,386 (Example 8) has been used in man for the treatment of hyperlipidaemia in the form of gelatine-coated pills each containing 300 mg of active ingredient at the rate of 2 to 6 such pills per day.

The nature of data set [2]: Reduction of lipids and cholesterol in rats treated orally. Particulars: Rattus norvegicus. The data set is classed as in vivo. How it is done: Some of the other results of the pharmacological tests which were carried out on rats are summarised below.
Rats given a normal diet are treated orally at a daily dose of 50 mg/kg for 3 and 5 days. A reduction of about 20% in the concentration of cholesterol and lipids in the plasma is observed.

Data set [3] relates to platelets (aggregation induced by ADP). Kind of data set: Anti-aggregation action, platelet aggregation induced by ADP. Type of data set: in vivo, male Wistar rats. To be noted: oral 100 mg/kg, 4 days; for inhibition at 100 mg/kg: Rattus norvegicus, Platelet, 96 h, read-out: inhibition of transmission (ADP test); for change in aggregation, ADP transmission: ADP at 1 μM. How it is done:
(b) by ADP: the inhibition of aggregation (that is to say the % transmission).
(§1) In Table IV which follows have been shown the results relating to the anti-aggregation action of some products on the blood of male Wistar rats, the aggregating agents used being collagen/acetic acid diluted 1/10, and ADP at 1 μM.

Data set [4] deals with platelets (aggregation induced by collagen). Briefly: Anti-aggregation action, platelet aggregation induced by collagen. The data set is classed as in vivo, male Wistar rats. Particulars: 4 days; for change in aggregation, collagen, latency period / change in aggregation, collagen, speed / change in aggregation, collagen, transmission: oral 100 mg/kg, collagen/acetic acid diluted 1/10. The protocol:
(a) by collagen: the inhibition of aggregation (which corresponds to the % transmission), the latency period and the speed; and
as §1

Data set [5] in a line: Solubility of the isolated product. Particulars: water.
Data set [6] has as its system blood platelet aggregation. Briefly: Anti-aggregation action in rats (graded / in words). The data set is classed as in vivo. To be noted: for anti-aggregation activity (in words): results of Table IV. Also noted: key to Anti-aggregation action: -: zero activity; +: significant activity; ++: intense activity; +++: very intense activity.
Data set [7] is described as follows: Hypo-lipidaemic and hypo-cholesterolaemic action in rats on hyper-lipid diet. The data set is classed as in vivo, Wistar rats. Particulars: Rattus norvegicus, 0.1 g/kg in rats. From the text:
A. a batch of rats receiving a normal diet (percentage inhibition=100%);
B. a batch of rats receiving a hyper-lipid diet (percentage inhibition=0%);
C. a batch of rats receiving the hyper-lipid diet B with a daily dose, of 0.1 g/kg, of a reference product having a lipidaemia-normalising action, namely Lipavlon [ethyl 2-(p-chlorophenoxy)-2-methyl-propionate];
D. a batch of rats receiving the hyper-lipid diet B with a daily dose, of 0.1 g/kg, of another product having a lipidaemia-normalising action, namely LL 1558 [1,10-bis-(2-hydroxyethyl-thio)-decane]; and
E. a batch of rats receiving the hyper-lipid diet B with a daily dose of 10 mg/kg and 25 mg/kg, where necessary, higher doses.
In Table III which follows have been shown the results relating to CRL 40,201 (the product of Example 17) and CRL 40,202 (the product of Example 18) in respect of the hypo-lipidaemic action and hypo-cholesterolaemic action.

Data set [8] can be described thus: Hypo-lipidaemic and hypo-cholesterolaemic action of other products (Table V). To be noted: Rattus norvegicus, 96 h; for change in vivo at 100 mg/kg: oral 100 mg/kg for 4 days; for change in vivo at 200 mg/kg: oral 200 mg/kg for 4 days. Type of data set: in vivo, rats. From the text: The results of the anti-aggregation test and of the hypo-[…] action and hypo-cholesterolaemic action tests of other products of the invention have been […] Table V which follows, the code used being the following (for each dose shown): […]

Where [9] appears, read: read-out: reduction in the cholesterol.
[10] abbreviates: read-out: reduction in the lipids.
Setting [11] is: read-out: Total lipids (change).
[12] abbreviates: tablet of 250 to 500 mg, to prevent cardiovascular accidents, especially coronary insufficiency.

In the case of `CC(COC(=O)COc1ccc(Sc2ccc(Cl)cc2)cc1)SCCCCCCCCCCSC(C)COC(=O)COc1ccc(Sc2ccc(Cl)cc2)cc1` (racemic) [CRL 40,389, (±)-2,15-Dimethyl-3,14-dithia-1,16-hexadecyl di-[p-(p-chlorophenylthio)-phenoxy-acetate]], the inhibition in vivo at 50 mg/kg is 35% in [1] (4 days, read-out: reduction in the cholesterol) and 35% in [1] (4 days, read-out: reduction in the lipids). For the same compound, the tolerance in man result in “Clinical tests in man” (capsules or gelatine-coated pills of 500 mg, 2 to 4 per day) is “well tolerated”. Besides, the treatment of hyperlipidaemia entry in “Clinical tests in man” (man, capsules or gelatine-coated pills of 500 mg, 2 to 4 per day) is reported as “efficient”.

Usually inhibition stands for the relative decrease from the control value, in per cent. Regarding `CC(COC(=O)C(C)Oc1ccc(Sc2ccc(Cl)cc2)cc1)SCCCCCCCCCCSC(C)COC(=O)C(C)Oc1ccc(Sc2ccc(Cl)cc2)cc1` (racemic) [CRL 40,391, (±)-2,15-Dimethyl-3,14-dithia-1,16-hexadecyl di-(±)-{2-[p-(p-chlorophenylthio)-phenoxy]-propionate}], the inhibition in vivo at 50 mg/kg in data set [2] (72 h, oral 50 mg/kg, 3 days, read-out: reduction in the cholesterol) was determined as 42%. Also, the inhibition in vivo at 50 mg/kg in data set [2] (72 h, oral 50 mg/kg, 3 days, read-out: reduction in the lipids) came to 29%. Besides, in [3], the inhibition at 100 mg/kg was 19%. In [1] (setting [9]), the inhibition in vivo at 10 mg/kg amounted to 32% and the inhibition in vivo at 20 mg/kg came out at 43%. In [1] (setting [10]), the inhibition in vivo at 10 mg/kg came to 17% and the inhibition in vivo at 20 mg/kg amounted to 21%. Moreover, in data set [4] (100 mg/kg, unit not given), the “latency time (collagen test)” value is recorded as “+40” and the “speed (collagen test)” value was -32.

Consider `CC(COC(=O)C(C)(C)Sc1ccc(Oc2ccc(Cl)cc2)cc1)SCCCCCCCCCCSC(C)COC(=O)C(C)(C)Sc1ccc(Oc2ccc(Cl)cc2)cc1` (racemic) [CRL 40,414, (±)-2,15-Dimethyl-3,14-dithia-1,16-hexadecyl di-{2-[p-(p-chlorophenoxy)-phenylthio]-2-methylpropionate}], for which, in data set [1] (oral 100 mg/kg, 4 days), the “reduction in the (total) lipids” value worked out at 12%. In “Clinical tests in man” (man, gelatine-coated pills of 300 mg, 3 per day), the treatment of hyperlipidaemia result was “used with success”.

With `CC(C)(CNCCO)Oc1ccc(Sc2ccc(Cl)cc2)cc1` [CRL 40,238, N-Hydroxyethyl-4-(4-chlorophenylthio)-phenoxy-isobutylamine hydrochloride], in data set [5], the “solubility in water (in words)” value is listed as “insoluble in water”. Besides, the “change in aggregation, ADP transmission” value in data set [3] is on record as -46%. Besides, in data set [4], the “change in aggregation, collagen, latency period” value (shortened to “change … latency period”) is recorded as “+18%”; the “change in aggregation, collagen, speed” value is given as -52%; the “change in aggregation, collagen, transmission” value (“change … collagen, transmission” below) is given as -47%. The “anti-aggregation activity (in words)” value in [6] is listed as “the most interesting amongst them”.

Turning to `O=C(O)CSc1ccc(Oc2ccc(Cl)cc2)cc1` [CRL 40,271, 4-(4-Chlorophenoxy)-phenylthioacetic acid], in [7] (read-out: cholesterol inhibition), the inhibition at 100 mg/kg came to 54%. In data set [7] (read-out: total lipids inhibition), the inhibition at 100 mg/kg was 35%. In [3], the “change in aggregation, ADP transmission” value is -28%. Moreover, in data set [4], the “change … latency period” value was “+15%”; the “change in aggregation, collagen, speed” value is recorded as -60%; the “change … collagen, transmission” value is on record as -25%. Further, the “anti-aggregation activity (in words)” value in data set [6] is “the most interesting amongst them”. Also, the tolerance in man result in the data set “Clinical tests in man” (gelatine-coated pill of 200 to 400 mg, 1 to 2 per day) is recorded as “well tolerated”. In addition, the “treatment of circulatory complaints due to hyperlipidaemias” value in the data set “Clinical tests in man” (man, gelatine-coated pill of 200 to 400 mg, 1 to 2 per day) was “efficient”.

As for `O=C(CSc1ccc(Oc2ccc(Cl)cc2)cc1)NCCO` [CRL 40,272, N-Hydroxyethyl-4-(4-chlorophenoxy)-phenylthioacetamide], the “change in aggregation, ADP transmission” value in data set [3] was -20%. In addition, in [4], the “change … latency period” value is reported as “+16%” and the “change … collagen, transmission” value amounted to 0%.

Consider `OCCNCCSc1ccc(Oc2ccc(Cl)cc2)cc1` [CRL 40,274, N-Hydroxyethyl-2-[4-(4-chlorophenoxy)phenylthio]-ethylamine], for which, in data set [5], the “solubility in water (in words)” value was “insoluble in water”. Besides, in data set [3], the “change in aggregation, ADP transmission” value is recorded as -20%. The “change in aggregation, collagen, speed” value in [4] is 0%.

With `CC(C)(CO)Sc1ccc(Oc2ccc(Cl)cc2)cc1` [CRL 40,276, 4-(4-Chlorophenoxy)-phenylthio-isobutanol], the “change in aggregation, ADP transmission” value in [3] is given as -20%. Moreover, in [4], the “change … latency period” value is “+25%”; the “change in aggregation, collagen, speed” value was -13%; the “change … collagen, transmission” value is -31%.

What is called solubility is the dissolved amount per volume that the medium holds. `Cl.OCCNCCOc1ccc(Oc2ccc(Cl)cc2)cc1` [CRL 40,295, N-Hydroxyethyl-2-[4-(4-chlorophenoxy)-phenoxy]-1-ethylamine hydrochloride]: the change in vivo at 100 mg/kg in data set [8] (read-out: Cholesterol (change)) was -32%; in [8] (setting [11]), -19%. Also, the change in vivo at 200 mg/kg was -37% in data set [8] (read-out: Cholesterol (change)) and -28% in data set [8] (setting [11]). Moreover, the solubility in data set [5] was 200 mg/mL. Moreover, the Anti-aggregation action entry in data set [6] (oral 100 mg/kg for 4 days) and in [6] (oral 200 mg/kg for 4 days) was “+++” each time. Also, the tolerance in man entry in “Clinical tests in man” (setting [12]) is given as “well tolerated”.

`Cl.NCCOc1ccc(Oc2ccc(Cl)cc2)cc1` [CRL 40,317, 2-[4-(4-Chlorophenoxy)-phenoxy]-ethylamine hydrochloride]: the change in vivo at 100 mg/kg in [8] (setting [11]) was -37%. For the same compound, the “solubility in water (in words)” value in data set [5] was “soluble in water”. In addition, in data set [6] (oral 100 mg/kg for 4 days), the Anti-aggregation action result is given as “+”. In addition, the tolerance in man result in the data set “Clinical tests in man” (setting [12]) was “well tolerated”.

In the case of `O=C(CSc1ccc(Sc2ccc(Cl)cc2)cc1)OCCSCCCCCCCCCCSCCOC(=O)CSc1ccc(Sc2ccc(Cl)cc2)cc1` [CRL 40,394, 3,14-Dithia-1,16-hexadecyl di-[p-(p-chlorophenylthio)-phenylthio-acetate]], the inhibition in vivo at 50 mg/kg in data set [2] (po, 120 h, 50 mg/kg, 5 days, read-out: reduction in the cholesterol) turned out to be 16%; in data set [2] (po, 120 h, 50 mg/kg, 5 days, read-out: reduction in the lipids), 33%.

For the compound `CC(C)(Sc1ccc(Sc2ccc(Cl)cc2)cc1)C(=O)OCCSCCCCCCCCCCSCCOC(=O)C(C)(C)Sc1ccc(Sc2ccc(Cl)cc2)cc1` [CRL 40,402, 3,14-Dithia-1,16-hexadecyl di-{2-[p-(p-chlorophenylthio)-phenylthio]-2-methylpropionate}], the inhibition at 100 mg/kg in data set [3] came out at 25%. Also, the inhibition in vivo at 20 mg/kg was 14% in data set [1] (setting [9]) and 17% in [1] (setting [10]). For the same compound, the “cholesterol content and lipids content (in words)” value in data set [1] (oral 10, 20 and 50 mg/kg, 3 to 5 days) is “a reduction in the cholesterol content and lipids content is observed”.
